Experimental data taken from patent US20210309669A1, “Heterocyclic Spiro Compounds As MAGL Inhibitors” (Pfizer Inc., priority 2018, published 2021).

Assay: Mouse subcutaneous neuropharmacokinetics study
Format: in vivo, Male C57Bl6 mice
Conditions: male, C57Bl6, mouse, brain (cerebellum homogenate) and plasma, sc, subcutaneous dose of 1 mg/kg, read-out: Mouse Cb,u/Cp,u
Procedure: The neuropharmacokinetics studies in mouse were conducted at Wuxi (Shanghai, China) with bioanalysis conducted at BioDuro (Beijing, China) with the exception of the Comparative-compound 3, which bioanalysis was conducted at Wuxi. All in vivo studies were conducted in accordance with regulations and established guidelines using protocols reviewed and approved by the Pfizer Worldwide Research and Development (WRD, or other) Institutional Animal Care and Use Committee.
Male C57Bl6 mice were maintained on a 12-h light/dark cycle in a temperature- and humidity-controlled environment with free access to food and water. The test compounds (Examples 1 and 2 and Comparative Compounds 1-3) were administered as a subcutaneous dose of 1 mg/kg which was delivered in a dose volume of 10 mL/kg. The dose solution for all compounds was formulated in 5% DMSO/5% cremophor/90% saline. Blood and brain samples were collected at 0.5, 1, 2, 4, 8, 12, and 24 h post-dose (n=3 per time point). Blood samples were collected into tubes containing sodium fluoride and 4-(2-aminoethyl)benzenesulfonyl fluoride hydrochloride (AEBSF; final concentration 2 mg/mL) to inhibit hydrolase activity and placed on wet ice. Following centrifugation to afford plasma, the samples were transferred to polypropylene tubes and stored frozen at −20° C. to −80° C. until analysis. Immediately following blood collection the mice were euthanized by cervical dislocation and the brains were removed. The cerebellum was immediately frozen in liquid nitrogen and stored at −80° C. until analysis.
Cerebellum samples were thawed, diluted 1:4 (w/v) with water, and homogenized using an H-speed dispersator. Standards and controls were prepared in a similar manner using a brain homogenate prepared from untreated animals. The plasma standard curves were generated with species specific plasma. All plasma and brain homogenate samples were quantified via LC/MS-MS using multiple reaction monitoring with non-validated methods.
Equilibrium dialysis using standard procedures [See Di et al., “Species independence in brain tissue binding using brain homogenates”; Drug Metab Dispos 39:1270-1277, 2011) were used for determination of the unbound fraction of the test compounds (Examples 1 and 2 and Comparative Compounds 1-3) in mouse plasma (fu,p; see Di et al., “impact of recovery on fraction unbound using equilibrium dialysis”; J Pharm Sci 101:1327-1335, 2012) and unbound fraction in rat brain homogenate (fu,b; see Di et al., “Species independence in brain tissue binding using brain homogenates”; Drug Metab Dispos 39:1270-1277, 2011). The determination of the unbound fraction in plasma also included the addition of AEBSF at a final concentration of 2 mg/mL to the incubation.
The pharmacokinetic parameters were computed by non-compartmental analysis using Watson Bioanalytical LIMS version 7.5. The AUC values were calculated using the linear trapezoidal method for both brain and plasma. Measured total plasma (Cp) and brain (Cb; assuming brain tissue density of 1 g/mL) concentrations were converted to unbound (free) values using the matrix specific binding factor (fu, p or fu,b) to determine free plasma (Cp,u) and free brain (Cb,u) values. All neurocompartmental ratios (Cb,u/Cp,u) were calculated through use of AUC values with the exception of Comparative Compounds 1 and 2 which used the mean of individual animal values due to insufficient data to calculate an AUC value.

Compound | Kp,uu (unbound brain/unbound plasma ratio)
O=C(OC(C(F)(F)F)C(F)(F)F)N1CCC2(CC1)C[C@@H](NS(=O)(=O)C1CC1)CO2 [Example 2, 1,1,1,3,3,3-Hexafluoropropan-2-yl (3R)-3-[(cyclopropylsulfonyl)amino]-1-oxa-8-azaspiro[4.5]decane-8-carboxylate] | 0.8
O=C(OC(C(F)(F)F)C(F)(F)F)N1CCC2(CC1)C[C@@H](NS(=O)(=O)CC1CC1)CO2 [Example 1, 1,1,1,3,3,3-Hexafluoropropan-2-yl (3R)-3-{[(cyclopropylmethyl)sulfonyl]amino}-1-oxa-8-azaspiro[4.5]decane-8-carboxylate] | 1
